We go through 5 compounds from patent US20220017516A1, “LOX INHIBITORS” (THE INSTITUTE OF CANCER RESEARCH: ROYAL CANCER HOSPITAL, priority 2018, published 2022).

Assay [1] addresses T1, LOX (Sus scrofa, UniProt P45845).
T1 construct: LOX was extracted from pig skin by previously described methods; from tissue; host or cells: pig skin
T1 sequence (P45845 1-249): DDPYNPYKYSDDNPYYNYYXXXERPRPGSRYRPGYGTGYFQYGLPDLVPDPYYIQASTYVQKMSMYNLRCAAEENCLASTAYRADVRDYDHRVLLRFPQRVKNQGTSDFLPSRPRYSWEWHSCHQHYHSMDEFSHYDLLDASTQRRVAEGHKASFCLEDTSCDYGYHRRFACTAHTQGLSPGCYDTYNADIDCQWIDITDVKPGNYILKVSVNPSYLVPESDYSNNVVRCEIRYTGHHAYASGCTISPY
Nature of the assay: LOX isoform activity assay (ROS Glo), LOX. It counts as biochemical, pig. Particulars: 1 h incubation with enzyme. As for the experimental part:
(§1) LOX was extracted from pig skin by previously described methods (Shackleton and Hulmes, 1990). LOXL2 and LOXL3 were obtained from R&D Systems/Bio-techne. The Promega ROS Glo assay kit (G8821) was used to assess enzyme activity. Overall, test compound was added to either 384 well assay plates (Greiner) using a Labcyte Echo™ Acoustic Handler or to 96 well plates for a final assay concentration of 100, 30, 10, 3, 1, 0.3, 0.1, 0.03, 0.01 and 0.003 μM final assay concentration. Enzymes were diluted according to specific pre-determined activity in assay buffer (100 mM CHES, pH 9, 0.05% (w/v) pluronic F-127, 0.5% (w/v) BSA, 1 mM MgCl2, 1 M urea, 100 mM NaCl) and added to the plate. For LOXL2, the mixture was incubated for 20 min, 1 h or 20 h; for LOX and LOXL3, incubation time was 1 h. Cadaverine and H2O2 substrate were then added to each well (final assay concentration 19.56 mM and 25 μM respectively) and the plates were incubated for 1.5 h (for LOX) or 1 h (for LOXL2 and LOXL3) at room temperature. Finally, luciferin detection reagent was added and plates were incubated for 20 min at room temperature, protected from light. Luminescence was measured using a BMG LABTECH PHERAstar FS reader and resulting IC50 values were calculated using GraphPad Prism software.

For the next assay, the target named is T2, LOXL2 (Homo sapiens, UniProt Q9Y4K0).
T2 construct: purchased R&D Systems/Bio-techne
T2 sequence (Q9Y4K0 26-774): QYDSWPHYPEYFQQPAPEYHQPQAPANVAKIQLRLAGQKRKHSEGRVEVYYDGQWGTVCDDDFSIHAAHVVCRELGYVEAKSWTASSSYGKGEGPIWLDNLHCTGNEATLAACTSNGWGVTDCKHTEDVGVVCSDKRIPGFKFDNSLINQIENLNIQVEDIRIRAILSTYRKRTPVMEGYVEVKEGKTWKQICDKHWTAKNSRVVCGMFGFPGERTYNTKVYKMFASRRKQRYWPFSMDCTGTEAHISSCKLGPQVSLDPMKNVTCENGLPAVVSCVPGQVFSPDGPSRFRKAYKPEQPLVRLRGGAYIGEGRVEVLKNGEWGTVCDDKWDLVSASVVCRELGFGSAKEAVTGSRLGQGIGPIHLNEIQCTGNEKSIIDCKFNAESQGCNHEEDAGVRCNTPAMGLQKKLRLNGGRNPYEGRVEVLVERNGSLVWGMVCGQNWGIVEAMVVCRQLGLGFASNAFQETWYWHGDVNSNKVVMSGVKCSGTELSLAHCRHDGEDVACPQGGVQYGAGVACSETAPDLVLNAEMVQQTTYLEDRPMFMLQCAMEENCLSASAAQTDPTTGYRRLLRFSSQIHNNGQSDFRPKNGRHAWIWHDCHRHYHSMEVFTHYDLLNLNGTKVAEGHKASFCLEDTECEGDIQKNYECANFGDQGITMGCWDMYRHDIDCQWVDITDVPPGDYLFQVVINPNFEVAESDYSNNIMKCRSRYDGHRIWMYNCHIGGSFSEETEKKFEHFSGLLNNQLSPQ
As to the kind of experiment: LOX isoform activity assay (ROS Glo), LOXL2. Type of assay: biochemical. As for the experimental part:
as §1
In another setting, LOXL2 enzyme was diluted according to specific pre-determined activity in assay buffer (100 mM CHES, pH 9, 0.05% (w/v) pluronic F-127, 0.5% (w/v) BSA, 1 mM MgCl2, 1 M urea, 100 mM NaCl). Overall, 0.5 μl test compound was added to 40 μl assay buffer+LOXL2 at 100, 30, 10, 3, 1, 0.3, 0.1, 0.03, 0.01 and 0.003 μM (final concentration) in a 96-well white polystyrene, flat bottom plates (Fisher) and incubated for the indicated time at room temperature. 10 μl of assay buffer containing 97.8 mM cadaverine and 125 μM H2O2 substrate (final assay concentration 19.56 mM and 25 μM respectively) were added to each well and plates were incubated for 1 h at room temperature. Finally, 50 μl per well luciferin detection reagent was added and plates were incubated for 20 min at room temperature, protected from light. Luminescence was measured with an integration time of 500 ms per well using a SpectaMax M5 plate reader and resulting IC50 values were calculated using GraphPad Prism software.

For a further assay, the target named is T3, LOXL3 (Homo sapiens, UniProt P58215).
T3 construct: purchased R&D Systems/Bio-techne
T3 sequence (P58215 26-753): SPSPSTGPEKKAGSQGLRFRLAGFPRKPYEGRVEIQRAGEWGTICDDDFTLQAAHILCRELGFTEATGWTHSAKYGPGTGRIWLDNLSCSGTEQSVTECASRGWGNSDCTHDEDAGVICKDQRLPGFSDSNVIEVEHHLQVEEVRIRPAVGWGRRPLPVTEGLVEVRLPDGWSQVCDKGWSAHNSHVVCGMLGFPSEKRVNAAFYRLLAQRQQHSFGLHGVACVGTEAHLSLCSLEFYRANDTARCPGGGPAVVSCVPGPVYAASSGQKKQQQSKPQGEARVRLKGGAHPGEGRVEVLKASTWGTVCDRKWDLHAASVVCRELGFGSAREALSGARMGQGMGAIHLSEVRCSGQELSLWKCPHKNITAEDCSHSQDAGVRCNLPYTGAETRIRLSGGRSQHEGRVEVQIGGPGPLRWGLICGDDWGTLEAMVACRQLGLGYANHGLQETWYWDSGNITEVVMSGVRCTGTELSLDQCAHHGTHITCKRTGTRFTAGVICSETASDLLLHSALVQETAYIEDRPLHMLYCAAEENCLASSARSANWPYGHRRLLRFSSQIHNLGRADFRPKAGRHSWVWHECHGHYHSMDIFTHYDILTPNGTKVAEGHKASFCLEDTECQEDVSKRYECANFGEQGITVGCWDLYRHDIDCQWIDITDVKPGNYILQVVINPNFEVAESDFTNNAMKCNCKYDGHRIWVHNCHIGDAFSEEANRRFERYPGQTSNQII
Nature of the assay: LOX isoform activity assay (ROS Glo), LOXL3. Type of assay: biochemical. Particulars: 1 h incubation with enzyme. As for the experimental part:
as §1

Assay [2] addresses T4, LOX (Mus musculus, UniProt P28301).
T4 construct: Full length LOX cDNA was then PCR cloned into pEGFP-N1 (Clonetech), or biosensor vector proGFP2—N1; expressed in transfected cells; host or cells: MDCK cells grown as cysts on Matrigel
T4 sequence (P28301 163-411): T1 sequence (P45845 1-249) with X20D, X21T, X22Y, Y31N, T80S, S142N, N188A, K202Q, S224T, E231D
As to the kind of experiment: LOX activity in cysts assay (roGFP2 LOX biosensor in MDCK cysts). Type of assay: cell-based. Particulars: LOX. As for the experimental part: All cell lines used in this study were purchased from American Type Culture Collection (ATCC). Mycoplasma contamination was routinely monitored by PCR. Cells used were not found to be Mycoplasma positive. MDCK cell lines were cultured in Dulbecco's Modified Eagle Medium (DMEM) supplemented with 10% fetal bovine serum (FBS) and 1% Penicillin Streptomycin solution (Pen Strep). For GFP constructs transfection in MDCK cells, lipofectamine 3000 was used according to manufactures protocols. Cells were either selected with G418 (Life Technologies) at 5 mg/ml. All cell culture reagents were purchased from Life Technologies.
To produce MDCK cysts, cells were cultured on Matrigel (Corning) with 2% Matrigel supplemented in DMEM with 10% FBS. Cysts were allowed to form for 10 days before subsequent studies.
Mouse LOX cDNA was purchased from OriGene. Full length LOX cDNA was then PCR cloned into pEGFP-N1 (Clonetech), or biosensor vector proGFP2—N1 (Hanson, 2004) using the following primers, […] (forward primer) and […] (reverse primer). For the insertion into pEGFP-N1 or proGFP2—N1, Nhel and Xhol restriction sites were added to forward and reverse primers accordingly. Mutant LOX constructs were made using QuickChange II site-directed mutagenesis kit (Agilent Technologies) following manufacture's protocol using LOX-GFP as template. To generate, roGFP2 versions of LOX mutant constructs, LOX mutant cDNA was transferred from pEGFP-N1 to proGFP2—N1 using Nhel and Xhol.
All photomicrographs were taken with a Leica TCS SP8 X confocal system. For LOX biosensor imaging, live MDCK cysts were used. The oxidised biosensor was excited using a 405 nm laser, while the reduced biosensor was excited with a 488 nm laser. Emission of the biosensor was recorded at 500 nm-530 nm range using sequential scans. Ratio images were generated following a published protocol {Kardash, 2011 #376}. Note, while the published protocol generates YFP/CFP ratio images, we used it to generate Oxidised/Reduced (roGFP2 ratio) ratio images. The roGFP2 ratio at the basal surface of MDCK cysts was used to indicate LOX inhibition. LOX inhibitors were added 30 min prior to imaging.
For clarity, readout for DMSO treated cysts represents 0% inhibition (no inhibition) and readout for BAPN at 1 mM is used as 100% inhibition (full inhibition).

The mark [3] stands for this setting: 1 hr incubation with enzyme; read-out: LOXL2 IC50 b) 1 hr.

Where a chain is given by its changes, count along the chain named. Where two headings read alike, the source gives them in different places.

On to `NCCS(=O)(=O)C(F)C(=O)N1C[C@@H]2CN(c3ccc(F)cc3)C[C@@H]2C1` (mixture of isomers) [Example 18], for which the IC50 came to 2300 nM on LOX [1], 230 nM at LOXL2 (setting [3]) and 440 nM at LOXL3.

Consider `CCOc1ccc(N2C[C@H]3CN(C(=O)C(F)S(=O)(=O)CCN)C[C@@H]2C(C)(C)C3)cc1` (stereo partly drawn) [Example 15, 2-((2-aminoethyl)sulfonyl)-1-((1 S,5S)-6-(4-ethoxyphenyl)-9,9-dimethyl-3,6-diazabicyclo[3.2.2]nonan-3-yl)-2-fluoroethan-1-one], for which the inhibition at 2.5 µM at LOX [2] (read-out: Cyst LOX (% inhibition) @ 2.5 uM) was found to be 78%. In addition, the IC50 came out at 2200 nM at LOX [1] and 120 nM at LOXL2 (20 hr incubation with enzyme; read-out: LOXL2 IC50 c) 20 hr).

For the compound `NCCS(=O)(=O)C(F)C(=O)N1C[C@@H]2CN(c3ccc(Br)cc3)C[C@@H]2C1` (stereo partly drawn) [Example 19, 2-((2-Aminoethyl)-sulfonyl)-2-fluoro-1-(cis-5-(4-bromo-phenyl)hexahydro-pyrrolo[3,4-c]pyrrol-2(1H)-yl)ethan-1-one], the IC50 against LOX [1] came to 660 nM; on LOXL2 (setting [3]), 150 nM; against LOXL3, 220 nM.

Regarding `NCCS(=O)(=O)C(F)C(=O)N1C[C@@H]2CN(c3c(F)c(F)c(F)c(F)c3F)C[C@@H]2C1` (stereo partly drawn) [Example 20, 2-((2-aminoethyl)-sulfonyl)-2-fluoro-1-(cis-5-(perfluoro-phenyl)hexahydro-pyrrolo[3,4-c]pyrrol-2(1H)-yl)ethan-1-one], the values for the IC50 on LOX [1], at LOXL2 (setting [3]) and against LOXL3 were 2400 nM, 240 nM and 340 nM, respectively.

On to `CCOc1ccc(N2C[C@H]3CN(C(=O)Nc4ccc(S(=O)(=O)CCN)cc4)C[C@@H]2C(C)(C)C3)cc1` [Example 37, (1S,5S)—N-(4-((2-aminoethyl)sulfonyl)phenyl)-6-(4-ethoxyphenyl)-9,9-dimethyl-3,6-diazabicyclo[3.2.2]nonane-3-carboxamide], for which the inhibition at 10 µM on LOX [2] (read-out: Cyst LOX @ 10 uM (% inhibition)) was found to be 78%. The IC50 at LOX [1] is 26000 nM; on LOXL2 (setting [3]), 20000 nM.
